IC50 data for four molecules are collected here from US5696112A, “Fused heterocyclic azepines as vasopressin antagonists” (American Cyanamid Company, priority 1995, dated 1997).

In experiment [1] the target is T1, Human V2 Vasopressin Receptor (Homo sapiens, UniProt P30518).
T1 construct: expressed in transfected cells; host or cells: mouse fibroblast cell line LV-2
As to the kind of experiment: Binding to Membranes of Mouse Fibroblast Cell Line (LV-2) Transfected with the cDNA Expressing the Human V2 Receptor. Particulars: LV-2 cell membranes. On the procedure: Binding to Membranes Of Mouse Fibroblast Cell Line (LV-2) Transfected with the cDNA expressing the Human V2 Vasopressin Receptor
Flasks of 175 ml capacity, containing attached cells grown to confluence are cleared of culture medium by aspiration. The flasks containing the attached cells are rinsed with 2×5 ml of phosphate buffered saline (PBS) and the liquid aspirated off each time. Finally, 5 ml of an enzyme free dissociation Hank's based solution (Specialty Media, Inc., Lafayette, N.J.) is added and the flasks are left undisturbed for 2 min. The content of all flasks is poured into a centrifuge tube and the cells pelleted at 300×g for 15 min. The Hank's based solution is aspirated off and the cells homo-genized with a polytron at setting #6 for 10 sec in 10.0 mM Tris.HCl buffer, pH 7.4 containing 0.25M sucrose and 1.0 mM EDTA. The homogenate is centrifuged at 1500×g for 10 min to remove ghost membranes. The supernatant fluid is centrifuged at 100,000×g for 60 min to pellet the receptor protein. Upon completion, the pellet is resuspended in a small volume of 50.0 mM Tris.HCl buffer, pH 7.4. The protein content is determined by the Lowry method and the receptor membranes are suspended in 50.0 mM Tris.HCl buffer containing 0.1 mM phenylmethylsulfonylfluoride (PMSF) and 0.2% bovine serum albumin (BSA) to give 2.5 mg receptor protein per ml of suspension.
For binding experiments, the following is added in μl volume to wells of a 96 well format of a microtiter plate: 100.0 μl of 100.0 mM Tris.HCl buffer containing 0.2% heat inactivated BSA, 10.0 mM MgCl2 and a mixture of protease inhibitors: leupeptin, 1.0 mg %; aprotinin, 1.0 mg %; 1,10-phenanthroline, 2.0 mg %; trypsin inhibitor, 10.0 mg % and 0.1 mM PMSF, 20.0 μl of [^3 H]Arginine^8, vasopressin (S.A. 75.0 Ci/mmole) at 0.8 nM and the reaction initiated by the addition of 80.0 μl of tissue membranes (200.0 μg tissue protein). The plates are left undisturbed on the bench top for 120 min to reach equilbrium. Non-specific binding is assessed in the presence of 1.0 μM of unlabeled ligand, added in 20 μl volume. For test compounds, these are solubilized in 50% dimethylsulfoxide (DMSO) and added in 20.0 μl volume to a final incubation volume of 200 μl . Upon completion of binding, the content of each well is filtered off, using a Brandel® cell Harvester (Gaithersburg, Md.). The radioactivity trapped on the filter disk by the ligand-receptor complex is assessed by liquid scintillation counting in a Packard LS Counter, with an efficiency of 65% for tritium. The data are analyzed for IC50 values by the LUNDON-2 program for competition (LUNDON SOFTWARE, OH).

Experiment [2] addresses T2, Vasopressin V1 Receptor Subtype in Human Platelet Membranes (Homo sapiens, UniProt P37288).
T2 construct: tissue Hudson Valley Blood Services, Westchester Medical Center, Valhalla, N.Y; host or cells: human platelet membranes from frozen platelet rich plasma
As to the kind of experiment: Binding to V1 Receptor Subtype in Human Platelet membranes. On the procedure:
Radioligand Binding Experiments with Human Platelet Membranes
Platelet Source: Hudson Valley Blood Services, Westchester Medical Center, Valhalla, N.Y.
Platelet Membrane Preparation:
Frozen platelet rich plasma (PRP), received from the Hudson Valley Blood Services are thawed to room temperature. The tubes containing the PRP are centrifuged at 16,000×g for 10 min. at 4° C. and the supernatant fluid discarded. The platelets resuspended in an equal volume of 50.0 mMTris.HCl, pH 7.5 containing 120 mM NaCl and 20.0 mM EDTA. The suspension is recentrifuged at 16,000×g for 10 min. This washing step is repeated one more time. The wash is discarded and the lysed pellets homogenized in low ionic strength buffer of Tris.HCl, 5.0 mM, pH 7.5 containing 5.0 mM EDTA. The homogenate is centrifuged at 39,000×g for 10 min. The resulting pellet is resuspended in Tris.HCl buffer, 70.0 mM, pH 7.5 and recentrifuged at 39,000×g for 10 min. The final pellet is resuspended in 50.0 mM Tris.HCl buffer pH 7.4 containing 120 mM NaCl and 5.0 mM HCl to give 1.0-2.0 mg protein per ml of suspension.
Binding to Vasopressin V1 Receptor Subtype in Human Platelet Membranes:
In wells of a 96 well format microtiter plate, add 100 μl of 50.0 mM Tris.HCl buffer containing 0.2% BSA and a mixture of protease inhibitors (aprotinin, leupeptin etc.). Then add 20 μl of [^3 H]Ligand: (Manning or Arg^8 Vasopressin), to give final concentrations ranging from 0.01 to 10.0 nM. Initiate the binding by adding 80.0 μl of platelet suspension (approx. 100 μg protein). Mix all reagents by pipetting the mixture up and down a few times. Non-specific binding is measured in the presence of 1.0 μM of unlabeled ligand (Manning or Arg^8 Vasopressin). Let the mixture stand undisturbed at room temperature for ninety (90) min. Upon this time, rapidly filter off the incubate under vacuum suction over GF/B filters, using a Brandel® Harvester. Determine the radioactivity caught on the filter disks by the addition of liquid scintillant and counting in a liquid scintillator

SMILES strings stand for the structures.

T1 sequence (P30518 whole entry): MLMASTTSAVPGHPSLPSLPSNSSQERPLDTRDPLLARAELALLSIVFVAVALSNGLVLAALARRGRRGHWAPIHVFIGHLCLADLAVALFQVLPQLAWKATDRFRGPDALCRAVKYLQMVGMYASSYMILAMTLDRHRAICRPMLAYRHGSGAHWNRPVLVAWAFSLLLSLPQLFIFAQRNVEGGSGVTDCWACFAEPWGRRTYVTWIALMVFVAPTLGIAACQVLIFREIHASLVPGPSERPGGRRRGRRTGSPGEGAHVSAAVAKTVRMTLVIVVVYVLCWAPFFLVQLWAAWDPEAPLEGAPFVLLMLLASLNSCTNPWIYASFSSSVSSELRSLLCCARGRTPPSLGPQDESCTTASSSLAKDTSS
T2 sequence (P37288 whole entry): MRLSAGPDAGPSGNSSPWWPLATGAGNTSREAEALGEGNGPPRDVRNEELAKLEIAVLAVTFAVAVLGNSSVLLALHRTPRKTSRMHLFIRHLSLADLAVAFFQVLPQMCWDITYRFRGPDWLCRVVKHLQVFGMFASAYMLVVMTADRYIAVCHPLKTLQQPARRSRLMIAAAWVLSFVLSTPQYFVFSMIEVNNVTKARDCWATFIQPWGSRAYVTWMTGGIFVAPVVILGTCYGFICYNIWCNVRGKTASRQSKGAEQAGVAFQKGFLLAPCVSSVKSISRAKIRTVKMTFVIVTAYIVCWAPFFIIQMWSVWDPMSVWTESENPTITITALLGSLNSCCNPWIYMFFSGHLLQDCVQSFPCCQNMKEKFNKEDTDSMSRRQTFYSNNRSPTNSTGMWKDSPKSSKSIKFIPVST

As usually defined, the IC50 is the concentration needed to halve the response being measured. A high value points to weaker potency in that assay. Consider `Cc1ccc(F)cc1C(=O)Nc1ccc(C(=O)N2CCCCc3sccc32)c(Cl)c1` [Example 70, N-[4-[(5,6,7,8-Tetrahydro-4H-thieno[3,2-b]azepin-4-yl)carbonyl]-3-chlorophenyl]-5-fluoro-2-methylbenzamide], for which the figures for the half-inhibitory concentration (IC50) in experiment [1] and in experiment [2] were 0.0034 µM and 0.11 µM, respectively.

Consider `O=C(Nc1ccc(C(=O)N2CCCCc3sc(Cl)cc32)cc1)c1c(Cl)cccc1Cl` [Example 95, N-[4-[(2-Chloro-5,6,7,8-tetrahydro-4H-thieno[3,2-b]azepin-4-yl)carbonyl]phenyl]-2,6-dichlorobenzamide], for which the 50% inhibitory concentration (IC50) in experiment [1] stood at 0.004 µM; in experiment [2] it was 0.19 µM.

With `O=C(Nc1ccc(C(=O)N2CCCCc3sccc32)c(Cl)c1)c1ccc(F)cc1Cl` [Example 183], the IC50 was found to be 0.0022 µM in experiment [1] and 0.18 µM in experiment [2].

Regarding `O=C(Nc1ccc(C(=O)N2CCCCc3sccc32)c(Cl)c1)c1ccc(Cl)cc1Cl` [Example 68, N-[4-[(5,6,7,8-Tetrahydro-4H-thieno[3,2-b]azepin-4-yl)carbonyl]-3-chlorophenyl]-2,4-dichlorobenzamide], the IC50 amounted to 0.022 µM in experiment [1] and 0.68 µM in experiment [2].
